Data taken from PMC4526202, “Identification of a botanical inhibitor of intestinal diacylglyceride acyltransferase 1 activity via in vitro screening and a parallel, randomized, blinded, placebo-controlled clinical trial” (Nutrition & Metabolism, 2015).

Experiments:
[1] = biological target: T1, DGAT1 (human small intestinal microsomal preparation) (Homo sapiens, UniProt O75907); experiment: Cell-free DGAT1 enzyme assay (LC-MS readout); type: biochemical
T1 construct: using a human small intestinal microsomal preparation (BD Biosciences) as the enzyme source; tissue BD Biosciences; host or cells: human small intestine microsomes
T1 sequence (O75907 1-488): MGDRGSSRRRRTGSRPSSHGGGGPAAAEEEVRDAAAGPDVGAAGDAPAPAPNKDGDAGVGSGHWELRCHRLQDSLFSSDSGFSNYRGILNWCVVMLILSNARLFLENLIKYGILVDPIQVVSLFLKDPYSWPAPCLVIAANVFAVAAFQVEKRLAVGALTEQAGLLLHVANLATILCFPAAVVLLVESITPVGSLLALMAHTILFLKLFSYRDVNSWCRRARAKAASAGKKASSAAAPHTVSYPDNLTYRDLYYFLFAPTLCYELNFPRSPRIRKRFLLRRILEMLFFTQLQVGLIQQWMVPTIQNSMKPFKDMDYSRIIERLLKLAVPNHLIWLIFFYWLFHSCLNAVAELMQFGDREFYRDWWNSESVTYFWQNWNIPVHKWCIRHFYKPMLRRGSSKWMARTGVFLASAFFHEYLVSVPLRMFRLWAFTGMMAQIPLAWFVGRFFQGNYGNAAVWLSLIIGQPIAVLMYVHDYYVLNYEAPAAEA
Method: A cell-free DGAT1 assay was established using a human small intestinal microsomal preparation (BD Biosciences) as the enzyme source, and dioleoyl glycerol and palmitoleoyl Coenzyme A (CoA) as substrates (Sigma). Dioleoyl glycerol was dissolved in DMSO and diluted to 600 μM with 175 mM Tris–HCl and 100 mM MgCl2 (Tris/MgCl2) buffer. Palmitoleoyl CoA was dissolved in1.5 % acetone water solution (Fisher Scientific) to 150 μM. Microsomes were diluted to 25 μg/mL with 3.5 mg/mL BSA in Tris MgCl2 buffer. To a 1.5 mL tube, 67 μL of each palmitoleoyl CoA s and dioleoyl glycerol solutions (1:1 ratio) were added and the reaction was initiated by the addition of 67 μL of microsomes. The reaction was incubated in a 37 °C water bath for 60 min. The reaction was stopped by the addition of 1 mL of extraction solvent (isopropanol:dichloromethane (1:1 v/v) with 2.4 % formic acid) containing 1 μg/mL internal standard (glyceryl triolein, Sigma) to each tube and mixed by vortexing. The tubes were centrifuged at 10,000Xg for 3 min. 500 μL of the bottom phase was filtered through a Millex-HV syringe driven filter unit with tube outlet (PVDF @ 0.45 μm, Millipore) and transferred to LC-MS vials (12x32 mm glass screw neck, preslit cap & PTFE/silicone septa, Waters). Phytochemicals (Sigma), botanical extracts and positive control were diluted in DMSO and added to the reaction with the substrates at the desired concentration. The DGAT1 inhibitor A922500 (Tocris) was used as positive control at a concentration of 40 nM.
Refer to Table 3 for the mobile phase program. Solvent A: 0.1 % ammonium acetate in water; Solvent B: 0.1 % acetic acid in acetonitrile; Solvent C: 0.1 % acetic acid in isopropanol; all solvents were from Fisher Scientific. Injection volume: 10 μL. Column: Acquity BEH C18 1.7 μm, 2.1 x 50 mm. Effluent from the column was directed to the electrospray source of the mass spectrometer. Electrospray conditions: positive ion mode; cone voltage: […]; desolvation temperature: 450 °C; source temperature: 140 °C; nebulizer gas flow: 800 L/h; cone gas flow: 10 L/h. The mass spectrometer was operated at 20,000 resolving power and scans from m/z 100–1200 were acquired with a cycle time of 0.25 s. Selected ion chromatograms were plotted for the following: m/z 875 representing the ammoniated molecular ion for triacylglycerol reaction product containing 2 oleic acid and 1 palmitoleic acid moieties (C18:1/C18:1/C16:1); m/z 903 for the ammoniated molecular ion of glyceryl triolein (C18:1/C18:1/C18:1) internal standard. Quantification was determined based on area counts of the product relative to the internal standard.
Dose response curves for the cell-free DGAT1 assay were fitted with a log (inhibitor) vs. response, variable slope (four parameters) equation. Cellular DGAT1 assay data is shown as mean ± standard error of mean (SEM) and was analyzed by two-way ANOVA with Bonferroni's multiple comparison test. The primary outcome variable, serum TG level, is presented as mean ± SEM of baseline (fasting) subtracted change in serum TG after the HFM challenge. Area under the curve (AUC) was determined using the trapezoidal method. Comparisons between groups were made using unpaired t-test with Welch’s correction. A significant effect of investigational product was defined as P < 0.05. All statistical analyses were done using Prism-Graph Pad Software (San Diego, CA).

[2] = system: DGAT1 activity / TG synthesis in HEK293H cells; experiment: Cellular DGAT1 assay: [14C]-glycerol incorporation into TG; type: cell-based, human
From the text: Three different cell lines, human colorectal (HT-29), human embryonic kidney (HEK293H) and human hepatic (HEPG2) were screened for the presence of both DGAT1 and DGAT2 protein. The HEK293H cell line contained DGAT1 and little to no DGAT2 protein (Additional file 1: Figure S1), therefore, a cellular DGAT1 assay was established in HEK293H cells to measure the synthesis of TG. HEK293 cell line has previously been reported to contain only DGAT1 and not DGAT2, and has been validated as an in vitro model to determine TG synthesis via DGAT1 [34].
The DGAT1 activity was determined by measuring the incorporation of [^14C]-glycerol (1 μCi/mL, Perkin-Elmer) into [^14C]-TG during a 5 h incubation with 0.3 mM oleic acid/BSA in HEK293H cells. […] Silica gel spots corresponding to lipid species were scraped into scintillation vials and the incorporated radioactivity was quantified using a MicroBeta TriLux (Perkin-Elmer). […]
Dose response curves for the cell-free DGAT1 assay were fitted with a log (inhibitor) vs. response, variable slope (four parameters) equation. Cellular DGAT1 assay data is shown as mean ± standard error of mean (SEM) and was analyzed by two-way ANOVA with Bonferroni's multiple comparison test. […] Area under the curve (AUC) was determined using the trapezoidal method. […]

[3] = single phytochemicals, mean of duplicates

## Punicalagins
[1]; [3]
  IC50: 259 nM

## O=C(O)c1cc(O)c(O)c(O)c1 [Gallic Acid]
[1]; [3]
  IC50: 2670 nM

## O=C(O[C@@H]1Cc2c(O)cc(O)cc2O[C@@H]1c1cc(O)c(O)c(O)c1)c1cc(O)c(O)c(O)c1 [EGCG, Epigallocatechin Gallate]
[1]; [3]
  IC50: 667 nM

## Oc1cc(O)c2cc(O)c(-c3ccc(O)c(O)c3)[o+]c2c1 [Cyanidin Chloride]
[1]; [3]
  IC50: 3060 nM

## O=C(Nc1ccccc1)Nc1ccc(-c2ccc(C(=O)[C@@H]3CCC[C@H]3C(=O)O)cc2)cc1 [A-922500]
[1]; synthetic inhibitor
  IC50: 40 nM
[1]; synthetic inhibitor, listed as A922500
  IC50: 39.9 nM
[2]
  oleic acid induced DGAT1 enzyme activity as measured by 14C label TG levels: inhibited

## O=c1oc2c(O)c(O)cc3c(=O)oc4c(O)c(O)cc1c4c23 [Ellagic Acid]
[1]; [3]
  IC50: 3450 nM
